From US6521641B1, “Male anti-fertility agents” (Allergan, Inc., priority 1998, dated 2003)
Like-named read-outs stand apart in the source and are kept apart here.

Legend:
male Sprague Dawley rats = test: Reversibility of spermatogenic arrest, oral AGN 194310 for 4 weeks and recovery (Example 3); type: in vivo, rat
Procedure: Groups of male Sprague Dawley rats were treated orally for 4 weeks with either 0, 0.075, or 0.150 mg/kg/day of AGN 194310. Three to six animals from each group were sacrificed after 2 weeks of treatment, 6 animals from each group were sacrificed following 4 weeks of treatment and 6 animals from each group were sacrificed after 18-23 weeks of subsequent recovery after cessation of treatment. Histological and pathological examinations were done of the sacrificed animals, as in Example 1. Additionally, the animals in the 23 week recovery group were mated to normal, untreated female Sprague Dawley rats before being sacrificed to assess the reproductive function.

Sprague-Dawley rats = settings: for epididymis histology: high dose rats
Procedure: Ninety-eight male and ninety-eight female Sprague-Dawley (Crl:CD®(SD) IGS BR) Charles River, Hollister, Calif. 95023) rats, approximately 8 to 10 weeks old, were used for the study. The rats were divided into the following groups: non-treated control, vehicle control, 0.005 mg/kg/day, 0.015 mg/kg/day and 0.15 mg/kg/day AGN 194310. AGN 194310 has the following chemical structure: [drawing 18]
The AGN 194310 compound was provided as follows: the compound was dissolved in capric/caprylic triglyceride (CCT) at a variety of doses, either 0.001% (v/v) AGN 194310, 0.003% (v/v) AGN 194310, or 0.01% (v/v) AGN 194310.
One hundred ninety-six animals were distributed into thirteen groups as follows: Groups 1 through 5 were Main Study groups. Groups 6-9 were used for Toxicokinetic studies. Groups 10-13 were Main Study Recovery groups.
The drug was administered using a graduated syringe and a 20×3 inch animal feeding needle. Drug was given to each animal in a single dose per day.
Urine was collected from animals in the Main Study and Recovery groups during week 4 of the treatment period, and from Recovery group animals during week 4 of the recovery period. Urine was analyzed for: blood (hemoglobin and erythrocytes), bilirubin, color, glucose, ketones, leukocytes, microscopic evaluations of any urine sediment, […], pH, protein, specific gravity, transparency, and urobilinogen.
Animals were euthanized by inhalation of carbon dioxide. A complete necropsy was performed on all Main Study and Recovery group animals that died, or were euthanized due to moribund conditions, or were euthanized on scheduled sacrifice.
The following organs were weighed for necroscopized animals: adrenal glands, ovaries, kidneys, pituitary gland, liver, spleen, heart, testes, and brain. In the case of organ pairs, both organs were weighed together.
The following tissues and organs were isolated, trimmed if necessary, and preserved in 10% buffered formalin for histopathological evaluation: adrenal glands, mammary gland (with skin), aorta, ovaries, bone/bone marrow, pancreas, femur, pituitary gland, tibia, prostate gland, knee joint, salivary glands, parotid, brain, sub-maxillary, cervix sciatic nerve, diaphragm, seminal vesicle, epididymides, skeletal muscle (thigh), eyes, spinal chord (thoracic), spleen, esophagus, sternum, stomach, testes, duodenum, thymus, jejunum, thyroid gland with parathyroids, ileum, any tissues with lesion(s), cecum, tongue, colon, trachea, heart, bladder, kidneys, uterus, liver, ureter, lungs, urethra, lymph nodes (vaginal, cervical, mediastinal, mesenteric).
Target tissues and organs from the Vehicle (control) and high-dose groups were imbedded in paraffin, and tissue sections made. The sections were mounted and stained with hematoxylin and eosin using standard histological techniques; such histopathological evaluation was performed using techniques well known in the art.
In the Recovery dosage groups that were so evaluated, the selected tissues were prepared and evaluated as set forth above.

[1] = oral 0.075 mg/kg, after 18 weeks of recovery
[2] = oral 0.075 mg/kg, after 23 weeks of recovery
[3] = male rats of the Recovery group, approximately one month without drug

CCc1ccc(C2=CC(C)(C)Sc3ccc(C#Cc4ccc(C(=O)O)cc4)cc32)cc1 [AGN 194310, 4-[[4-(4-ethylphenyl)-2,2-dimethyl-(2H)-thiochromen-6-yl]-ethynyl]-benzoic acid]
seminal vesicles (male Sprague Dawley rats; all the treated animals, oral 0.075 mg/kg): normal
round spermatids in the epididymal caput and cauda (male Sprague Dawley rats; oral 0.075 mg/kg): No increase
rats with evidence of spermatogenic arrest (male Sprague Dawley rats; oral 0.075 mg/kg, after 2 and 4 weeks of treatment): All rats
weight of the testes and epididymides (male Sprague Dawley rats; oral 0.075 mg/kg, after 4 weeks of treatment): significantly reduced
mature sperm in the epididymides (male Sprague Dawley rats; [1]): no mature sperm were seen
spermatogenesis (histological analysis) (male Sprague Dawley rats; [1]): active spermatogenesis had resumed
weight of the testes and epididymides (male Sprague Dawley rats; [1]): this weight decrease persisted to some degree
fertility (mating to untreated females) (male Sprague Dawley rats; [2]): All tested animals were fertile
rats completely recovered (normal testes weights, complete spermatogenesis cycle, mature sperm in epididymides) (male Sprague Dawley rats; [2]): 2 of the 3
rats with spermatogenic arrest (male Sprague Dawley rats; oral 0.150 mg/kg, after 2 and 4 weeks of treatment): all rats
rats completely recovered (active and complete spermatogenesis, normal testes weight) (male Sprague Dawley rats; oral 0.150 mg/kg, after 23 weeks of recovery): 4 out of 6
spermatogenesis in the remaining animals (male Sprague Dawley rats; oral 0.150 mg/kg, after 23 weeks of recovery, remaining two animals): incomplete spermatogenesis no mature sperm seen in the epididymides histologically
reproduction of the recovered rats (male Sprague Dawley rats; oral 0.150 mg/kg, after 23 weeks of recovery, the 4 recovered rats): able to reproduce normally
reversibility of the effects of the drug (male Sprague Dawley rats; when administration is halted): fully reversible
germinal cell layers lining the seminiferous tubules (Sprague-Dawley rats; high dose males 0.15 mg/kg/day, usual four or more layers in normal tubules): one to two layers of germinal cells
epididymis histology (Sprague-Dawley rats; end of recovery): absence of stored epididymal sperm
epididymis histology (Sprague-Dawley rats; end of treatment): increase in exfoliated cells
reversibility of inhibition (focal increase in germ cell layers in individual tubules) (Sprague-Dawley rats; [3]): reversibility of such inhibition was also evident
spermatogenesis (morphology) (Sprague-Dawley rats; [3]): continuing cessation of spermatogenesis
testicular atrophy (Sprague-Dawley rats; [3]): testicular atrophy was evident
spermatozoa counts in urine (Sprague-Dawley rats; male rats, oral 0.15 mg/kg/day, Recovery group, end of the recovery period): no spermatozoa counts
testes size at postmortem examination (Sprague-Dawley rats; male rats, oral 0.15 mg/kg/day, end of the recovery period): apparent reduction of testes size in all five male rats
testes weight (Sprague-Dawley rats; male rats, oral high dose 0.15 mg/kg/day, end of the treatment and recovery periods): reduction in testes weight
spermatogenic arrest (testes histology) (Sprague-Dawley rats; male rats, oral intermediate dose 0.015 mg/kg/day, end of treatment): No such effect
spermatogenic arrest (testes histology) (Sprague-Dawley rats; male rats, oral low dose 0.005 mg/kg/day, end of treatment): No such effect
testes weight (Sprague-Dawley rats; male rats, oral, other dosage groups (0.005 and 0.015 mg/kg/day)): no statistically significant reduction of testes weight
male rats with spermatogenic arrest (testes histology) (Sprague-Dawley rats; oral high dose 0.15 mg/kg/day, end of treatment): 10/10
rats with inflammation or damage to stromal or vascular elements of the testis (Sprague-Dawley rats; rat, in vivo): None
